The values that follow come from patent publication US8071584B2 (GlaxoSmithKline LLC, priority 2007, dated 2011).

The subject of this assay is human monocyte stimulated cytokine production (TNF-α). As to the kind of experiment: Monocyte assay (LPS-stimulated TNF-α production). The class given is cell-based. Conditions: for IC50: human CD14+ monocytes, 200 ng/mL LPS, 24 hrs, values given as 'about', read-out: pIC50 in the monocyte assay (converted); for inhibition at 0.3 µM: 300 nM, human monocytes, LPS. The protocol:
Effect of IKK-β inhibition on human monocyte stimulated cytokine production was assessed as follows: Monocytes were isolated from heparinized whole blood by Ficoll gradient, followed by purification of CD14+ cells using MACS magnetic cell separation beads. Isolated monocytes were then adhered to 96-well culture plates at 1×10^6 cells/mL in RPMI 1640 10% FBS (JRH Biosciences, Lenexa Kans.) for 2 h. Test compounds are added to the wells 30 minutes prior to stimulation with a final vehicle concentration of 0.1% DMSO. Monocytes were activated by the addition of 200 ng/mL endotoxin (LPS; E. coli serotype 026:B6) (Sigma, St. Louis, Mo.) and incubated for 24 hrs at 37 C. Cell-free supernates were analyzed by Alphascreen™ (Perkin Elmer, Waltham, Mass.) for TNF-α using R&D Systems matched pair Abs. Viability of the cells was determined by 10% trypan blue exclusion.

SMILES strings stand for the structures. Where only a bound is given, the exact number is not on record here.

Take `NC(=O)c1cc(-c2nc(Br)cs2)cc2c(C3CCS(=O)(=O)CC3)c[nH]c12` [Example 83, 5-(4-Bromo-1,3-thiazol-2-yl)-3-(1,1-dioxidotetrahydro-2H-thiopyran-4-yl)-1H-indole-7-carboxamide]: the IC50 was above 1000 nM.
For the compound `NC(=O)c1cc(-c2csc(CCCO)c2)cc2c(C3CCS(=O)(=O)CC3)c[nH]c12` [Example 84, 3-(1,1-Dioxidotetrahydro-2H-thiopyran-4-yl)-5-[5-(3-hydroxypropyl)-3-thienyl]-1H-indole-7-carboxamide], the IC50 is 5.01 to 1000 nM.
As to `NC(=O)c1cc(-c2nccs2)cc2c(C3CCS(=O)(=O)CC3)c[nH]c12` [Example 85, 3-(1,1-Dioxidotetrahydro-2H-thiopyran-4-yl)-5-(1,3-thiazol-2-yl)-1H-indole-7-carboxamide], the IC50 is 5.01 to 1000 nM.
Take `NC(=O)c1cc(-c2csc(CC3CC3)c2)cc2c(C3CCS(=O)(=O)CC3)c[nH]c12` [Example 97, 5-[5-(Cyclopropylmethyl)-3-thienyl]-3-(1,1-dioxidotetrahydro-2H-thiopyran-4-yl)-1H-indole-7-carboxamide]: the IC50 was 5.01 to 1000 nM.
With `COCc1ccc(-c2cc(C(N)=O)c3[nH]cc(C4CCS(=O)(=O)CC4)c3c2)s1` [Example 98, 3-(1,1-Dioxidotetrahydro-2H-thiopyran-4-yl)-5-{5-[(methyloxy)methyl]-2-thienyl}-1H-indole-7-carboxamide], the IC50 was 5.01 to 1000 nM.
Turning to `Cc1n[nH]c(C)c1-c1cc(C(N)=O)c2[nH]cc(C3CCS(=O)(=O)CC3)c2c1` [Example 140, 5-(3,5-Dimethyl-1H-pyrazol-4-yl)-3-(1,1-dioxidotetrahydro-2H-thiopyran-4-yl)-1H-indole-7-carboxamide], the IC50 was above 1000 nM.
Consider `NC(=O)c1c(F)c(-c2ccccc2)cc2c(C3CCS(=O)(=O)CC3)c[nH]c12` [Example 168, 3-(1,1-Dioxidotetrahydro-2H-thiopyran-4-yl)-6-fluoro-5-phenyl-1H-indole-7-carboxamide], for which the IC50 was 5.01 to 1000 nM.
Take `NC(=O)c1cc(-c2ccccc2)c(F)c2c(C3CCS(=O)(=O)CC3)c[nH]c12` [Example 169, 3-(1,1-Dioxidotetrahydro-2H-thiopyran-4-yl)-4-fluoro-5-phenyl-1H-indole-7-carboxamide]: the IC50 was 5.01 to 1000 nM.
As to `NC(=O)c1cc(-c2ccsc2)c(F)c2c(C3CCS(=O)(=O)CC3)c[nH]c12` [Example 170, 3-(1,1-Dioxidotetrahydro-2H-thiopyran-4-yl)-4-fluoro-5-(3-thienyl)-1H-indole-7-carboxamide], the IC50 is 5.01 to 1000 nM.
On to `COC(=O)c1cc(-c2ccc(F)cc2)cc2c([C@@H]3CCSC3)c[nH]c12` [Example 172, Methyl 5-(4-fluorophenyl)-3-[(3S)-tetrahydro-3-thienyl]-1H-indole-7-carboxylate], for which the IC50 was 5.01 to 1000 nM.
Still for that read-out and setting: the value for `COC(=O)c1cc(-c2ccc(F)cc2)cc2c([C@H]3CCSC3)c[nH]c12` [Example 173, methyl 5-(4-fluorophenyl)-3-[(3R)-tetrahydro-3-thienyl]-1H-indole-7-carboxylate] was 5.01 to 1000 nM; that for `NC(=O)c1cc(-c2csc(CN3CCC3)c2)cc2c(C3CCS(=O)(=O)C3)c[nH]c12` (centres unmarked) [Example 185, 5-[5-(1-Azetidinylmethyl)-3-thienyl]-3-(1,1-dioxidotetrahydro-3-thienyl)-1H-indole-7-carboxamide] was 5.01 to 1000 nM.
With `NC(=O)c1cc(-c2csc(CN3CCCCCC3)c2)cc2c(C3CCS(=O)(=O)C3)c[nH]c12` (centres unmarked) [Example 186, 3-(1,1-Dioxidotetrahydro-3-thienyl)-5-[5-(hexahydro-1H-azepin-1-ylmethyl)-3-thienyl]-1H-indole-7-carboxamide], the inhibition at 0.3 µM fell in the range of 0 to 100%.
With `NC(=O)c1cc(-c2csc(CN3CCCC3)c2)cc2c(C3CCS(=O)(=O)C3)c[nH]c12` (centres unmarked) [Example 187, 3-(1,1-Dioxidotetrahydro-3-thienyl)-5-[5-(1-pyrrolidinylmethyl)-3-thienyl]-1H-indole-7-carboxamide], the IC50 was 5.01 to 1000 nM.
`NC(=O)c1cc(-c2ccco2)cc2c(C3CCS(=O)(=O)C3)c[nH]c12` (centres unmarked) [Example 188, 3-(1,1-Dioxidotetrahydro-3-thienyl)-5-(2-furanyl)-1H-indole-7-carboxamide]: the IC50 was 5.01 to 1000 nM.
Still for that read-out and setting: the value for `NC(=O)c1cc(-c2ccoc2)cc2c(C3CCS(=O)(=O)C3)c[nH]c12` (centres unmarked) [Example 189, 3-(1,1-Dioxidotetrahydro-3-thienyl)-5-(3-furanyl)-1H-indole-7-carboxamide] was above 1000 nM; that for `NC(=O)c1cc(-c2cccs2)cc2c(C3CCS(=O)(=O)C3)c[nH]c12` (centres unmarked) [Example 190, 3-(1,1-Dioxidotetrahydro-3-thienyl)-5-(2-thienyl)-1H-indole-7-carboxamide] was 5.01 to 1000 nM.
As to `NC(=O)c1cc(-c2ccc3sccc3c2)cc2c(C3CCS(=O)(=O)C3)c[nH]c12` (centres unmarked) [Example 191, 5-(1-Benzothien-5-yl)-3-(1,1-dioxidotetrahydro-3-thienyl)-1H-indole-7-carboxamide], the IC50 is 5.01 to 1000 nM.
`NC(=O)c1cc(-c2ccccc2)cc2c(C3CC4CCC(C3)S4(=O)=O)c[nH]c12` (stereo not drawn) [Example 192, 3-[(3-endo)-8,8-Dioxido-8-thiabicyclo[3.2.1]oct-3-yl]-5-phenyl-1H-indole-7-carboxamide] had an inhibition at 0.3 µM of 0 to 100%.
`NC(=O)c1cc(-c2csc(CN3CCCCCC3)c2)cc2c(C3CC4CCC(C3)S4(=O)=O)c[nH]c12` (stereo not drawn) [Example 203, 3-[(3-endo)-8,8-Dioxido-8-thiabicyclo[3.2.1]oct-3-yl]-5-[5-(hexahydro-1H-azepin-1-ylmethyl)-3-thienyl]-1H-indole-7-carboxamide]: the IC50 was 5.01 to 1000 nM.
The compound `NC(=O)c1cc(-c2csc(CN3CCC3)c2)cc2c(C3CC4CCC(C3)S4(=O)=O)c[nH]c12` (stereo not drawn) [Example 204, 3-[(3-endo)-8,8-Dioxido-8-thiabicyclo[3.2.1]oct-3-yl]-5-[5-(1-azetidinylmethyl)-3-thienyl]-1H-indole-7-carboxamide] had an inhibition at 0.3 µM of 0 to 100%.
On to `NC(=O)c1cc(-c2csc(CN3CCCC3)c2)cc2c(C3CC4CCC(C3)S4(=O)=O)c[nH]c12` (stereo not drawn) [Example 205, 3-[(3-endo)-8,8-Dioxido-8-thiabicyclo[3.2.1]oct-3-yl]-5-[5-(1-pyrrolidinylmethyl)-3-thienyl]-1H-indole-7-carboxamide], for which the IC50 is 5.01 to 1000 nM.
Turning to `NC(=O)c1cc(-c2csc(CN3CCCCCC3)c2)cc2c(C3CC4CCC(C3)S4(=O)=O)c[nH]c12` (stereo not drawn) [Example 208, 3-[(3-exo)-8,8-Dioxido-8-thiabicyclo[3.2.1]oct-3-yl]-5-[5-(hexahydro-1H-azepin-1-ylmethyl)-3-thienyl]-1H-indole-7-carboxamide], the inhibition at 0.3 µM was 0 to 100%.
For the compound `NC(=O)c1cc(-c2ccccc2)cc2c(C3CCCS(=O)(=O)CC3)c[nH]c12` (centres unmarked) [Example 212, 3-(1,1-Dioxido-4-thiepanyl)-5-phenyl-1H-indole-7-carboxamide], the IC50 is 5.01 to 1000 nM.
Regarding `NC(=O)c1cc(-c2ccoc2)cc2c(C3CCCS(=O)(=O)C3)c[nH]c12` (centres unmarked) [Example 217, 3-(1,1-Dioxidotetrahydro-2H-thiopyran-3-yl)-5-(3-furanyl)-1H-indole-7-carboxamide], the inhibition at 0.3 µM lay within 0 to 100%.
In the case of `NC(=O)c1cc(-c2ccco2)cc2c(C3CCCS(=O)(=O)C3)c[nH]c12` (centres unmarked) [Example 218, 3-(1,1-Dioxidotetrahydro-2H-thiopyran-3-yl)-5-(2-furanyl)-1H-indole-7-carboxamide], the IC50 was 5.01 to 1000 nM.
